We go through ten molecules from ChEMBL document CHEMBL1201862, “PubChem BioAssay data set” (2004).

Holding throughout (experiment): inhibition of tumour cell growth, NCI panel, 48 h
For assay [1], the system named is HT-29.
In assay [2] the test system is HOP-92.
Assay [3] concerns BT-549.
The subject of assay [4] is IGROV-1.
For assay [5], the system named is UACC-62.
Assay [6] has as its system SNB-19.
For assay [7], the system named is RPMI-8226.
Assay [8] relates to HL-60.
In assay [9] the test system is MOLT-4.
The test system of assay [10] is DU-145.
Assay [11] concerns CCRF-CEM.
For assay [12], the system named is MDA-MB-231.
Assay [13] concerns OVCAR-3.
For assay [14], the system named is SW-620.
The subject of assay [15] is 786-0.
The subject of assay [16] is COLO 205.
In assay [17] the test system is EKVX.
The subject of assay [18] is SN12C.
Assay [19] relates to SF-268.
Assay [20] concerns HCT-15.

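Exposure lasted 48 hours, with cells grown in 96-well plates and compounds tested at five concentrations. GI50 is the concentration that inhibits growth by half.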 The source made the active and inactive calls. Cut-off read from the data, not from the text of the source: active = GI50 up to about 1.1 µM and inactive = higher.

In the case of `COc1ccc2oc(=O)cc(C)c2c1`, the GI50 in assay [1], in assay [2], in assay [3], in assay [4], in assay [5] and in [6] was > 100 µM (inactive) in each case. The GI50 in [7], in assay [8], in [9], in assay [10], in assay [11] and in assay [12] was > 100 µM (inactive) throughout. Also, the GI50 was > 100 µM (inactive) in assay [13]; > 100 µM (inactive) in [14]; > 100 µM (inactive) in [15]; > 100 µM (inactive) in assay [16]; 21 µM (inactive) in [17]; > 100 µM (inactive) in assay [18]. For the same molecule, the GI50 in assay [19] was > 100 µM (inactive).

Regarding `COC1=CC(=O)C(C2CC(=O)c3c(O)cc(O)cc3O2)=CC1=O` (stereo not drawn), the GI50 in [1] is > 45.1 µM (inactive); in assay [2], 7.55 µM (inactive); in assay [3], 19.8 µM (inactive); in assay [4], 19.1 µM (inactive); in assay [5] it was 16.4 µM (inactive); in assay [6] it was 25 µM (inactive). For the same molecule, the GI50 in assay [7] was 10.9 µM (inactive); in [8] it was 2 µM (inactive); in assay [9], 1.96 µM (inactive); in assay [10], 19 µM (inactive); in [11], 0.658 µM (active); in [12], 12.2 µM (inactive). In addition, the GI50 in [13] was 18.5 µM (inactive); in assay [14] it was 20.2 µM (inactive); in assay [15], 13.1 µM (inactive); in assay [20], 23.3 µM; in assay [16], 17.9 µM (inactive); in assay [17], 16.6 µM (inactive). Also, the values for the GI50 in [18] and in [19] were 19.8 µM (inactive) and 20.7 µM (inactive), respectively.

Turning to `CC1=CC(O)CC(C)(C)C1/C=C/C(C)=C/C=C/C(C)=C/C=C/C=C(C)/C=C/C=C(C)/C=C/C1=C(C)CC(O)CC1(C)C` (stereo not drawn), the GI50 in assay [1] is 14.9 µM (inactive); in [2], 21.4 µM (inactive); in assay [3], 17.8 µM (inactive); in assay [4] it was 26.5 µM (inactive); in [5], 15 µM (inactive); in [6], 53.2 µM (inactive). Besides, the GI50 in assay [7] is 28.2 µM (inactive); in assay [8], 51.6 µM (inactive); in assay [9] it was 20.9 µM (inactive); in [10], 7.43 µM (inactive); in assay [11], 26.2 µM (inactive); in [12], 13.5 µM (inactive). For the same molecule, the GI50 in [13] was 17.3 µM (inactive); in assay [14] it was 19.1 µM (inactive); in [15], 19.1 µM (inactive); in [20] it was 19.7 µM; in assay [16], 20.7 µM (inactive); in assay [17] it was 79.3 µM (inactive).

As for `CN(Cc1c2ccccc2cc2ccccc12)S(=O)(=O)c1ccc(-c2c3nc(c(-c4ccc(S(=O)(=O)N(C)Cc5c6ccccc6cc6ccccc56)cc4)c4ccc([nH]4)c(-c4ccc(S(=O)(=O)N(C)Cc5c6ccccc6cc6ccccc56)cc4)c4nc(c(-c5ccc(S(=O)(=O)N(C)Cc6c7ccccc7cc7ccccc67)cc5)c5ccc2[nH]5)C=C4)C=C3)cc1`, the GI50 is > 100 µM (inactive) in assay [1]; 29.2 µM (inactive) in assay [2]; > 100 µM (inactive) in assay [3]; > 100 µM (inactive) in assay [4]; > 100 µM (inactive) in [5]; 44 µM (inactive) in assay [6]. For the same molecule, the GI50 in assay [7], in assay [8], in assay [9], in [10], in [11] and in assay [12] was > 100 µM (inactive) in each case. The GI50 in assay [13] is > 100 µM (inactive); in assay [14], > 100 µM (inactive); in assay [15] it was 53.1 µM (inactive); in assay [20] it was > 100 µM; in [16] it was > 100 µM (inactive); in [17], > 100 µM (inactive). Further, the GI50 in [18] and in assay [19] was > 100 µM (inactive) each time.

Regarding `Nc1ccc(Oc2ccc(C3(c4ccc(Oc5ccc(N)c(O)c5)cc4)C4CC5CC(C4)CC3C5)cc2)cc1O`, the GI50 in [1] is 1.64 µM (inactive); in assay [2], 2.92 µM (inactive); in assay [3], 1.66 µM (inactive); in assay [4], 1.75 µM (inactive); in assay [5], 2.69 µM (inactive); in assay [6] it was 2.4 µM (inactive). Also, the GI50 in assay [7] was 1.97 µM (inactive); in assay [8], 2.11 µM (inactive); in assay [9], 1.66 µM (inactive); in [10], 1.82 µM (inactive); in [11], 2.82 µM (inactive); in [12] it was 1.82 µM (inactive). In addition, the GI50 was 1.56 µM (inactive) in assay [13]; 1.77 µM (inactive) in assay [14]; 1.82 µM (inactive) in assay [15]; 1.73 µM in [20]; 0.484 µM (active) in assay [16]; 2.2 µM (inactive) in assay [17]. For the same molecule, the GI50 in [18] is 1.9 µM (inactive); in [19], 1.53 µM (inactive).

Regarding `CC1CCC2(CC1)N=C1CCC(C)CC1C1(CCC(C)CC1)N2` (stereo not drawn), the GI50 in assay [1] is 86.7 µM (inactive); in assay [2], > 100 µM (inactive); in assay [3], > 100 µM (inactive); in assay [4], > 100 µM (inactive); in assay [5], > 100 µM (inactive); in assay [6] it was > 100 µM (inactive). Besides, the GI50 in assay [7] is 82 µM (inactive); in assay [8] it was 43.8 µM (inactive); in assay [9], 25.9 µM (inactive); in [10] it was > 100 µM (inactive); in assay [11], 24.3 µM (inactive); in assay [12] it was > 100 µM (inactive). Besides, the GI50 in assay [13] is > 100 µM (inactive); in assay [14] it was 79.3 µM (inactive); in assay [15] it was > 100 µM (inactive); in [20], 84.7 µM; in assay [16], > 100 µM (inactive); in [17] it was > 10 µM (inactive).

Regarding `COC(=O)C1(Cc2ccc3c(c2)CCC3)Cc2ccc3c(c2C1)CCC3` (stereo not drawn), the GI50 was 14.9 µM (inactive) in [1]; 18.7 µM (inactive) in assay [2]; 21.6 µM (inactive) in assay [3]; 21.1 µM (inactive) in assay [4]; 32 µM (inactive) in assay [5]; 19.4 µM (inactive) in [7]. Besides, the GI50 in [8] is 23.4 µM (inactive); in assay [9], 43.3 µM (inactive); in assay [10], 24.8 µM (inactive); in assay [11], 70.6 µM (inactive); in assay [12] it was 15.6 µM (inactive); in [13], 20.3 µM (inactive). Also, the GI50 in assay [14] is 25.2 µM (inactive); in assay [15], 24.5 µM (inactive); in [20], 25 µM; in assay [16], 19 µM (inactive); in assay [17] it was 31.3 µM (inactive); in [18], 17.5 µM (inactive). For the same molecule, the GI50 in [19] is 44.4 µM (inactive).

For the molecule `O=C(NCCCCCCCCNC(=O)c1cc(-c2ccccc2)nc2ccccc12)c1cc(-c2ccccc2)nc2ccccc12`, the GI50 was > 100 µM (inactive) in assay [1]; > 100 µM (inactive) in assay [2]; 57.7 µM (inactive) in [3]; > 100 µM (inactive) in assay [4]; > 100 µM (inactive) in assay [5]; 64.9 µM (inactive) in assay [6]. Also, the GI50 in assay [7], in assay [8], in assay [9], in assay [10], in assay [11] and in [12] was > 100 µM (inactive) throughout. Also, the GI50 in assay [13] is > 100 µM (inactive); in assay [14], > 100 µM (inactive); in assay [15], 41.7 µM (inactive); in assay [20], > 100 µM; in assay [16], > 100 µM (inactive); in [17], > 100 µM (inactive). Moreover, the GI50 in [18] was > 100 µM (inactive); in [19], 68.9 µM (inactive).

`CCC(C)[C@H](NC(=O)N[C@H](C)c1ccccc1)C(=O)OC` (stereo partly drawn): the GI50 in assay [1], in assay [2], in [3], in assay [4], in assay [5] and in assay [6] was > 100 µM (inactive) each time. Also, the GI50 in [7], in assay [8], in assay [9], in [10], in [11] and in assay [12] was > 100 µM (inactive) throughout. Moreover, the GI50 is > 100 µM (inactive) in assay [13]; > 100 µM (inactive) in [14]; > 100 µM (inactive) in [15]; > 100 µM in assay [20]; > 100 µM (inactive) in assay [16]; > 100 µM (inactive) in [17]. In [18], the GI50 is > 100 µM (inactive).

For `O=C(O)c1ccccc1C(=O)Nc1cc2c(cc1Br)-c1ccccc1C2=O`, the GI50 in assay [1] was > 100 µM (inactive); in assay [2], 48.1 µM (inactive); in assay [3] it was > 100 µM (inactive); in assay [4], > 100 µM (inactive); in assay [5], > 100 µM (inactive); in assay [6], > 100 µM (inactive). Besides, the GI50 in assay [7] is > 100 µM (inactive); in assay [8], 92.5 µM (inactive); in assay [9], 79.8 µM (inactive); in assay [10], 64.4 µM (inactive); in assay [11], 45.9 µM (inactive); in assay [12], > 100 µM (inactive). The GI50 in assay [13] is 40.6 µM (inactive); in assay [14], > 100 µM (inactive); in [15], > 100 µM (inactive); in assay [20], > 100 µM; in assay [16] it was 68.5 µM (inactive); in assay [17], > 100 µM (inactive). The GI50 in assay [18] and in [19] was > 100 µM (inactive) in each case.
